The values that follow come from ChEMBL document CHEMBL3044992, “Design, synthesis, and docking studies of novel ofloxacin analogues as antimicrobial agents” (2012).

As usually defined, the MIC is the least concentration at which growth counts as inhibited. Higher therefore signals a less susceptible organism.

Common to all, as to format: functional
Assay [1] relates to Staphylococcus epidermidis. In words: Antibacterial activity against Staphylococcus epidermidis after 24 hr by two-fold serial dilution method.
The test system of another assay is Staphylococcus aureus. As to the kind of experiment: Antibacterial activity against Staphylococcus aureus after 24 hr by two-fold serial dilution method.
In another assay the test system is Bacillus subtilis. As to the kind of experiment: Antibacterial activity against Bacillus subtilis after 24 hr by two-fold serial dilution method.
The test system of assay [2] is Candida albicans. As to the kind of experiment: Antifungal activity against Candida albicans at 100 ug/ml after 48 hr […]. The following applies: read-out: IZ.
Assay [3] relates to Candida albicans. As to the kind of experiment: Antifungal activity against Candida albicans at 50 ug/ml after 48 hr […]. The following applies: read-out: IZ.
Assay [4] relates to Candida albicans. In words: Antifungal activity against Candida albicans at 25 ug/ml after 48 hr […]. The following applies: read-out: IZ.
For another assay, the system named is Pseudomonas aeruginosa. In words: Antibacterial activity against Pseudomonas aeruginosa after 24 hr by two-fold serial dilution method.
A further assay relates to Klebsiella pneumoniae. As to the kind of experiment: Antibacterial activity against Klebsiella pneumoniae after 24 hr by two-fold serial dilution method.
A further assay relates to Escherichia coli. As to the kind of experiment: Antibacterial activity against Escherichia coli after 24 hr by two-fold serial dilution method.

Each structure is given as a SMILES string. Values after ≈ are worked out from the molar mass of the structure shown.

Turning to `CC1COc2c(N3CCN(C)CC3)c(F)cc3c(=O)c(-c4nn(CCC(=O)Cc5cccc([N+](=O)[O-])c5)c(=S)n4N)cn1c23` (stereo not given), the MIC in [1] worked out at 0.5 µg/mL (≈ 0.803 µM); against Staphylococcus aureus, 0.25 µg/mL (≈ 0.401 µM); in the assay with Bacillus subtilis, 0.5 µg/mL (≈ 0.803 µM); in the assay on Pseudomonas aeruginosa, 0.25 µg/mL (≈ 0.401 µM); in the assay with Klebsiella pneumoniae it was 0.12 µg/mL (≈ 0.193 µM); against Escherichia coli, 1 µg/mL (≈ 1.61 µM). Further, the zone of inhibition at 100 µg/mL in the assay with Candida albicans [2] was determined as 21 mm. Further, the zone of inhibition at 50 µg/mL in the assay on Candida albicans [3] is 18 mm. Also, the zone of inhibition at 25 µg/mL in the assay on Candida albicans [4] was 16 mm.
For `CC1COc2c(N3CCN(C)CC3)c(F)cc3c(=O)c(C(=O)N/N=C/c4ccccc4Cl)cn1c23` (stereo not given), the MIC was 0.5 µg/mL (≈ 1 µM) in [1]; 0.125 µg/mL (≈ 0.251 µM) in the assay on Staphylococcus aureus; 0.5 µg/mL (≈ 1 µM) in the assay with Bacillus subtilis; 0.25 µg/mL (≈ 0.502 µM) in the assay with Pseudomonas aeruginosa; 0.12 µg/mL (≈ 0.241 µM) in the assay on Klebsiella pneumoniae; 0.5 µg/mL (≈ 1 µM) against Escherichia coli. In the assay with Candida albicans [2], the zone of inhibition at 100 µg/mL was found to be 22 mm. The zone of inhibition at 50 µg/mL in the assay with Candida albicans [3] turned out to be 18 mm. Further, the zone of inhibition at 25 µg/mL with Candida albicans [4] was 16 mm.
For `COc1ccc(/C=N/NC(=O)c2cn3c4c(c(N5CCN(C)CC5)c(F)cc4c2=O)OCC3C)cc1` (stereo not given), the MIC in [1] amounted to 0.25 µg/mL (≈ 0.507 µM); with Staphylococcus aureus it was 0.125 µg/mL (≈ 0.253 µM); with Bacillus subtilis it was 0.5 µg/mL (≈ 1.01 µM); in the assay on Pseudomonas aeruginosa it was 0.5 µg/mL (≈ 1.01 µM); with Klebsiella pneumoniae, 0.5 µg/mL (≈ 1.01 µM); with Escherichia coli, 0.5 µg/mL (≈ 1.01 µM). In addition, the zone of inhibition at 100 µg/mL with Candida albicans [2] worked out at 23 mm. In addition, the zone of inhibition at 50 µg/mL in the assay with Candida albicans [3] was determined as 20 mm. Further, the zone of inhibition at 25 µg/mL in the assay on Candida albicans [4] was 18 mm.
Take `CC1COc2c(N3CCN(C)CC3)c(F)cc3c(=O)c(C(=O)N/N=C/c4ccccc4O)cn1c23` (stereo not given): the MIC in assay [1] is 0.25 µg/mL (≈ 0.521 µM); in the assay on Staphylococcus aureus, 0.25 µg/mL (≈ 0.521 µM); against Bacillus subtilis, 0.5 µg/mL (≈ 1.04 µM); in the assay with Pseudomonas aeruginosa, 0.12 µg/mL (≈ 0.25 µM); in the assay with Klebsiella pneumoniae it was 1 µg/mL (≈ 2.09 µM); in the assay on Escherichia coli, 1 µg/mL (≈ 2.09 µM). Besides, the zone of inhibition at 100 µg/mL in the assay on Candida albicans [2] is 21 mm. The zone of inhibition at 50 µg/mL in the assay with Candida albicans [3] was 18 mm. Besides, the zone of inhibition at 25 µg/mL in the assay with Candida albicans [4] is 15 mm.
On to `CC1COc2c(N3CCN(C)CC3)c(F)cc3c(=O)c(C(=O)NNC=O)cn1c23` (stereo not given), for which the MIC is 0.25 µg/mL (≈ 0.62 µM) in assay [1]; 0.25 µg/mL (≈ 0.62 µM) in the assay with Staphylococcus aureus; 0.5 µg/mL (≈ 1.24 µM) in the assay with Bacillus subtilis; 1 µg/mL (≈ 2.48 µM) with Pseudomonas aeruginosa; 1 µg/mL (≈ 2.48 µM) in the assay with Klebsiella pneumoniae; 1 µg/mL (≈ 2.48 µM) in the assay with Escherichia coli. For the same molecule, the zone of inhibition at 100 µg/mL with Candida albicans [2] was determined as 23 mm. In addition, the zone of inhibition at 50 µg/mL with Candida albicans [3] turned out to be 21 mm. In addition, in the assay on Candida albicans [4], the zone of inhibition at 25 µg/mL is 18 mm.
Regarding `CC1COc2c(N3CCN(C)CC3)c(F)cc3c(=O)c(C(=O)N/N=C/c4cccc([N+](=O)[O-])c4)cn1c23` (stereo not given), the MIC in assay [1] was 0.25 µg/mL (≈ 0.492 µM); against Staphylococcus aureus it was 0.25 µg/mL (≈ 0.492 µM); in the assay with Bacillus subtilis, 0.5 µg/mL (≈ 0.983 µM); in the assay with Pseudomonas aeruginosa, 0.5 µg/mL (≈ 0.983 µM); against Klebsiella pneumoniae, 0.5 µg/mL (≈ 0.983 µM); with Escherichia coli, 0.5 µg/mL (≈ 0.983 µM). The zone of inhibition at 100 µg/mL in the assay with Candida albicans [2] turned out to be 20 mm. Further, the zone of inhibition at 50 µg/mL in the assay on Candida albicans [3] turned out to be 17 mm. In addition, the zone of inhibition at 25 µg/mL in the assay on Candida albicans [4] is 15 mm.
Take `CC1COc2c(N3CCN(C)CC3)c(F)cc3c(=O)c(C(=O)N/N=C/c4ccccc4)cn1c23` (stereo not given): the MIC in assay [1] was determined as 0.25 µg/mL (≈ 0.539 µM); in the assay on Staphylococcus aureus it was 0.125 µg/mL (≈ 0.27 µM); in the assay with Bacillus subtilis, 0.5 µg/mL (≈ 1.08 µM); against Pseudomonas aeruginosa, 1 µg/mL (≈ 2.16 µM); against Klebsiella pneumoniae, 0.25 µg/mL (≈ 0.539 µM); against Escherichia coli, 1 µg/mL (≈ 2.16 µM). The zone of inhibition at 100 µg/mL with Candida albicans [2] came out at 21 mm. Further, the zone of inhibition at 50 µg/mL in the assay on Candida albicans [3] turned out to be 18 mm. Besides, the zone of inhibition at 25 µg/mL with Candida albicans [4] came to 15 mm.
On to `CC1COc2c(N3CCN(C)CC3)c(F)cc3c(=O)c(-c4nn(CCC(=O)c5ccccc5)c(=S)o4)cn1c23` (stereo not given), for which the MIC came out at 0.5 µg/mL (≈ 0.91 µM) in assay [1]; 0.25 µg/mL (≈ 0.455 µM) in the assay with Staphylococcus aureus; 0.5 µg/mL (≈ 0.91 µM) in the assay on Bacillus subtilis; 2 µg/mL (≈ 3.64 µM) with Pseudomonas aeruginosa; 0.25 µg/mL (≈ 0.455 µM) against Klebsiella pneumoniae; 1 µg/mL (≈ 1.82 µM) against Escherichia coli. Further, the zone of inhibition at 100 µg/mL with Candida albicans [2] was 22 mm. Moreover, the zone of inhibition at 50 µg/mL in the assay with Candida albicans [3] is 19 mm. In the assay with Candida albicans [4], the zone of inhibition at 25 µg/mL is 16 mm.
In the case of `CC1COc2c(N3CCN(C)CC3)c(F)cc3c(=O)c(-c4nn(CCC(=O)c5ccc(N)cc5)c(=S)o4)cn1c23` (stereo not given), the MIC in assay [1] came to 0.5 µg/mL (≈ 0.886 µM); in the assay on Staphylococcus aureus, 0.25 µg/mL (≈ 0.443 µM); in the assay with Bacillus subtilis, 0.5 µg/mL (≈ 0.886 µM); in the assay with Pseudomonas aeruginosa, 0.5 µg/mL (≈ 0.886 µM); with Klebsiella pneumoniae, 0.5 µg/mL (≈ 0.886 µM); against Escherichia coli, 0.25 µg/mL (≈ 0.443 µM). Besides, in the assay on Candida albicans [2], the zone of inhibition at 100 µg/mL was 21 mm. Also, the zone of inhibition at 50 µg/mL with Candida albicans [3] stood at 18 mm. Further, the zone of inhibition at 25 µg/mL with Candida albicans [4] was 17 mm.
With `CC(=O)CCn1nc(-c2cn3c4c(c(N5CCN(C)CC5)c(F)cc4c2=O)OCC3C)oc1=S` (stereo not given), the MIC stood at 0.25 µg/mL (≈ 0.513 µM) in assay [1]; 0.25 µg/mL (≈ 0.513 µM) with Staphylococcus aureus; 0.5 µg/mL (≈ 1.03 µM) with Bacillus subtilis; 0.25 µg/mL (≈ 0.513 µM) with Pseudomonas aeruginosa; 0.12 µg/mL (≈ 0.246 µM) against Klebsiella pneumoniae; 0.25 µg/mL (≈ 0.513 µM) against Escherichia coli. For the same molecule, in the assay on Candida albicans [2], the zone of inhibition at 100 µg/mL was 22 mm. In addition, the zone of inhibition at 50 µg/mL in the assay with Candida albicans [3] was determined as 18 mm. For the same molecule, the zone of inhibition at 25 µg/mL in the assay on Candida albicans [4] came out at 15 mm.
On to `CC(=O)CCn1nc(-c2cn3c4c(c(N5CCN(C)CC5)c(F)cc4c2=O)OCC3C)n(N)c1=S` (stereo not given), for which the MIC in assay [1] was 0.5 µg/mL (≈ 0.997 µM); with Staphylococcus aureus, 3.12 µg/mL (≈ 6.23 µM); against Bacillus subtilis it was 0.5 µg/mL (≈ 0.997 µM); with Pseudomonas aeruginosa, 0.5 µg/mL (≈ 0.997 µM); against Klebsiella pneumoniae, 0.12 µg/mL (≈ 0.239 µM); in the assay with Escherichia coli it was 0.5 µg/mL (≈ 0.997 µM). For the same molecule, in the assay with Candida albicans [2], the zone of inhibition at 100 µg/mL was found to be 22 mm. Besides, in the assay with Candida albicans [3], the zone of inhibition at 50 µg/mL amounted to 18 mm. In addition, in the assay with Candida albicans [4], the zone of inhibition at 25 µg/mL stood at 16 mm.
Regarding `CC1COc2c(N3CCN(C)CC3)c(F)cc3c(=O)c(-c4nn(CCC(=O)c5ccccc5O)c(=S)n4N)cn1c23` (stereo not given), the MIC was 0.5 µg/mL (≈ 0.863 µM) in assay [1]; 0.25 µg/mL (≈ 0.431 µM) against Staphylococcus aureus; 0.5 µg/mL (≈ 0.863 µM) in the assay on Bacillus subtilis; 0.5 µg/mL (≈ 0.863 µM) against Pseudomonas aeruginosa; 0.12 µg/mL (≈ 0.207 µM) against Klebsiella pneumoniae; 1 µg/mL (≈ 1.73 µM) in the assay on Escherichia coli. Moreover, the zone of inhibition at 100 µg/mL in the assay with Candida albicans [2] is 21 mm. The zone of inhibition at 50 µg/mL with Candida albicans [3] worked out at 17 mm. The zone of inhibition at 25 µg/mL in the assay with Candida albicans [4] turned out to be 15 mm.
As to `CC1COc2c(N3CCN(C)CC3)c(F)cc3c(=O)c(C(=O)O)cn1c23` (stereo not given) [OFLOXACIN], the MIC was 0.5 µg/mL (≈ 1.38 µM) in [1], 0.25 µg/mL (≈ 0.692 µM) against Staphylococcus aureus, 1 µg/mL (≈ 2.77 µM) in the assay with Bacillus subtilis and 0.06 µg/mL (≈ 0.166 µM) in the assay with Klebsiella pneumoniae. Besides, in the assay on Candida albicans [2], the zone of inhibition at 100 µg/mL is 28 mm. In addition, the zone of inhibition at 50 µg/mL in the assay on Candida albicans [3] turned out to be 26 mm. In the assay with Candida albicans [4], the zone of inhibition at 25 µg/mL was 21 mm.
